Laboratory results reported in article PMC3024420 (PLoS ONE, 2011).
Entries after “also recorded” stand apart in the source; their conditions may differ. Where no end group is shown, it is not given here.

Key:
matriptase = matriptase (Homo sapiens, UniProt Q9Y5Y6)
Method: (§1) All incubation sample tubes were pulsed briefly in a microcentrifuge, and immediately stored at −20°C. Samples were electrophoresed on mini-16% Tricine-SDS gels, and stained.
(§2) Digested peptide fragments from protease incubations underwent MALDI-TOF/TOF MS/MS analysis using the Model Ultraflex III mass spectrometer (Bruker Daltonics, Billerica, MA, USA) equipped with LIFT capability. Samples were desalted using C18 ZipTips (Millipore, Bedford, MA, USA) and were analyzed in positive reflector mode. External calibration was performed using a mass standards kit for proteomics analyzer (Applied Biosystems). Samples also underwent analysis via nano-LC ESI-TOF MS/MS using the maXis ESI-Q-TOF (Bruker Daltonics) mass spectrometer online with the Dionex model U3000 nanobore HPLC [28]. Data were analyzed with the Sprot database using the Bruker ProteinScape program version 2.1 and Mascot program version 2.2 with enzyme setting to semiTrypsin.

[1] = target: prostate-specific antigen (PSA) (Homo sapiens, UniProt P07288)
prostate-specific antigen (PSA), sequence (P07288 25-261): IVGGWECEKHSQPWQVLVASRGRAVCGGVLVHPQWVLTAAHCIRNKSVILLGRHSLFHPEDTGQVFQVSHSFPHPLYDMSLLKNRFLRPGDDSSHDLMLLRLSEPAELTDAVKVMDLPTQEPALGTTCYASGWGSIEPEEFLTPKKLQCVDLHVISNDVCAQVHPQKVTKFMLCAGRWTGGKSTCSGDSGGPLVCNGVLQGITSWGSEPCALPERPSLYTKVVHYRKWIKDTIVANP
Method: as §1, §2

prostasin = prostasin (Homo sapiens, UniProt Q16651)
prostasin, sequence (Q16651 33-343): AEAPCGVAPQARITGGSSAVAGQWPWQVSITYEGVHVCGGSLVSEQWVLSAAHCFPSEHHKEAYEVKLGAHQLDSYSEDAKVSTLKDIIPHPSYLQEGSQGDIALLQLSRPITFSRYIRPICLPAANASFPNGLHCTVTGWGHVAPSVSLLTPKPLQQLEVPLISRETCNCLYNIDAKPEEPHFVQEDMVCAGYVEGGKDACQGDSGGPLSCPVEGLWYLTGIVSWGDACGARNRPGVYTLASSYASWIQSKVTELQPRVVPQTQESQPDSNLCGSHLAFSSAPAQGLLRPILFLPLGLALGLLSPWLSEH
Method: as §1, §2

trypsin [2] = system: trypsin
Method: as §1, §2

[3] = 300 rpm, 37°C, Tricine-SDS gel; for stability in SP containing protease inhibitor (PI) cocktail: SP spiked with broad spectrum PI cocktail, 1–24 h; for time to complete degradation / time to partial degradation: three volumes peptide (1 mg/ml) with one volume whole SP, Coomassie blue
Method: as §1

TZM-bl cells [4] = format: cell-based; details: 24 h of treatment; peptides 35 µg/ml, SP 1%
Method: (§3) All treated cells were lysed using a Bright Glo luciferase system (Promega, Madison, WI, USA), and the ability to prevent HIV-1 infection was measured as a percent reduction in luciferase (relative light units or RLU) compared to the positive viral control (media and virus only). Metabolic activity of the cells was verified by a tetrazolium-based (MTT) assay according to manufacturer's instructions (R&D Systems, Minneapolis, MN, USA), while cytotoxicity was measured using the standard trypan blue dye exclusion assay.

TZM-bl cells [5] = assay: MTT metabolic assay; format: cell-based; details: cells treated for 24 h; peptides 35 µg/ml, SP 1%
Method: as §3

PM1 cells = details: 35 µg/ml with or without 1% SP; n = 3
Method: (§4) Cells were then washed, and resuspended in fresh media with sample treatments for 5–7 days. Supernatants were collected on alternate days, and cells in culture were resuspended in sample or media alone. To ensure cell viability, standard trypan blue dye exclusion assays were performed. To quantify viral inhibition, the amount of p24gag was measured in cell supernatants with an ELISA (PerkinElmer, Waltham, MA, USA).
(§5) The antiviral, metabolic, and cytotoxicity experiments were performed at least three times, and each of the assays were performed in triplicate or quadruplicate. For the TZM-bl antiviral assays the infected vehicle-only controls were averaged and set as 100% infection. For the PM1 and PBMC antiviral assays, p24 ELISA quantification established the infected vehicle-only control as 100% infection. […] Individual treatments were analyzed by either one-way ANOVA with Tukey's multiple comparisons post-test or two-tailed unpaired t-test.

PBMCs = details: 35 µg/ml with or without 1% SP; n = 3
Method: as §4, §5

trypsin [6] = assay: trypsin diluted with sterile PBS; details: 37°C, up to 24 h
[7] = SP spiked with a broad spectrum protease inhibitor (PI); details: human, 37°C, up to 24 h
[8] = MALDI TOF/TOF MS/MS and nano-LC-MS/MS

matriptase, sequence (Q9Y5Y6 whole entry): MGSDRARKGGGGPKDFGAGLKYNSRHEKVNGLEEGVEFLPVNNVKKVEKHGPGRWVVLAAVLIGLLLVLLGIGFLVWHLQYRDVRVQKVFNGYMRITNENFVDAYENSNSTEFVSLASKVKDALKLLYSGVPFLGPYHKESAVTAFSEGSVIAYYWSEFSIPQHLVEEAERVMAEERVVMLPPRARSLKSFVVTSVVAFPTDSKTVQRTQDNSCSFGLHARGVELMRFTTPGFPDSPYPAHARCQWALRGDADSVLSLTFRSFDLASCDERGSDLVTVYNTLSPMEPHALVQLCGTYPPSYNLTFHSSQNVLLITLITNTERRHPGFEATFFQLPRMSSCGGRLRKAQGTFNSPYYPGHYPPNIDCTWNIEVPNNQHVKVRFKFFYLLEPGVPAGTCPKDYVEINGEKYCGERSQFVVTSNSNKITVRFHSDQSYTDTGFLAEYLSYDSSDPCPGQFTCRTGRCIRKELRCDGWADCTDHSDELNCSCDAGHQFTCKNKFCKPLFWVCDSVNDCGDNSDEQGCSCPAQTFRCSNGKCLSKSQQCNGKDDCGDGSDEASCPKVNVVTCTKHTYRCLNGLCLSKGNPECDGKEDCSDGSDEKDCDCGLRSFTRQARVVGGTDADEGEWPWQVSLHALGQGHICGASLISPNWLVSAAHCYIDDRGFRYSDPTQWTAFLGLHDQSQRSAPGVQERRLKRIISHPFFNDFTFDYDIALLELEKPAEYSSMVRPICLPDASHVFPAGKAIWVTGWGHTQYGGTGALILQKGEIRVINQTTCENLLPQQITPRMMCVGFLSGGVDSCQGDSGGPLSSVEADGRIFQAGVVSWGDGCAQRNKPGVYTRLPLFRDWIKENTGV

Sequence	cleavage products by MS after incubation with matriptase (matriptase; [8])	degradation by matriptase (matriptase; PAP^286 54 µM, matriptase 1 µM in PBS, 300 rpm, 24 h, 37°C, Tricine-SDS gel, silver stain)	cleavage products by MS after incubation with PSA [1, 8]	degradation by PSA ([1]; PAP^286 54 µM (250 µg/ml), PSA 1 µM in PBS, 300 rpm, 24 h, 37°C, Tricine-SDS gel, silver stain)	PSA concentration giving complete degradation ([1]; PAP^286 54 µM, PSA 1.5 µM–[…], 300 rpm, 24 h, 37°C, Tricine-SDS gel, silver stain) [µM]	cleavage products by MS after incubation with prostasin (prostasin; [8])	degradation by prostasin (prostasin; PAP^286 54 µM, prostasin 1 µM in PBS, 300 rpm, 24 h, 37°C, Tricine-SDS gel, silver stain)	cleavage products by MS after incubation with trypsin (trypsin [2]; [8])	degradation by trypsin (positive control) (trypsin [2]; PAP^286 54 µM, trypsin 1 µM in PBS, 300 rpm, 24 h, 37°C, Tricine-SDS gel, silver stain)	stability in SP containing protease inhibitor (PI) cocktail [3]	time to complete degradation [3] [h]	time to partial degradation [3] [h]	cytotoxicity (trypan blue) (TZM-bl cells [4])	metabolic activity of cells (MTT) (TZM-bl cells [5])	cytotoxicity (trypan blue) (PM1 cells)	cytotoxicity (trypan blue) (PBMCs)	fragment found (trypsin [6])	not cleaved [7]
GIHKQKEKSRLQGGVLVNEILNHMKRATQIPSYKKLIMY [PAP^286]	detectable cleavage products	degradation of the PAP peptide with visible cleavage products	detectable cleavage products	degradation of the PAP peptide with visible cleavage products	0.75	detectable cleavage products	did not effectively degrade	detectable cleavage products	completely degraded the peptide, with no cleavage products visualized	preservation	≤ 3	≤ 1						
GIHKQKEKSRLQGGVLVNE [PAP^266]										preservation	≤ 3	≤ 1	lack of cytotoxicity	no significant adverse effects to metabolic activity	No appreciable cytotoxicity	No appreciable cytotoxicity		
GIHKQKEKSRLQGGVLVNEILNHMKRATQIPSYKKLIMY																	SRLQGGVLVNEILNHMKR; also recorded: ATQIPSYK; also recorded: LQGGVLV; also recorded: RATQIPS; also recorded: ATQIPS; also recorded: LQGGVL; also recorded: LQGGV	preservation of the PAP peptides over time
